Results: patent publication US12274725B2, “Zika virus strains for treatment of glioma” (priority 2017, dated 2025)

Key:
GSC lines (387 and 3565) = assay: Temozolomide cytotoxicity assay; assay type: cell-based, human; settings: 7 days
Method: Two GSC lines (387 and 3565) were treated with indicated concentrations of temozolomide for 7 days. Relative cell number was assayed by CellTiter-Glo on day 7 and normalized to PBS control.
GSCs were plated at 1,000 cells/well in 96-well tissue culture treated plates (TPP) and allowed to attach overnight. For viral infection and growth inhibition assays, wild-type ZIKV-Dakar, ZIKV-Brazil, or mouse adapted ZIKV-Dakar were used at an MOI of 5. For combined drug+virus therapy experiments, wild-type parental ZIKV-Cambodia and its derivative ZIKV-E218A were used for infection. Temozolomide (TMZ, Sigma) was dissolved in PBS and diluted in Neurobasal complete media. ZIKV was added at an MOI of 5 by itself or 4 h before TMZ (250 μM) addition. Cell supernatants were stored at −80° C. for subsequent analysis.

recurrent GBM = settings: cited from earlier work

Cn1nnc2c(C(N)=O)ncn2c1=O [TMZ, Temozolomide]
effective TMZ concentration (GSC lines (387 and 3565)): 250 µM

nivolumab: immune checkpoint inhibitor tested in CheckMate 143
safety in patients (recurrent GBM; in vivo): safe
overall response rate (recurrent GBM; recurrent GBM): lower than the current standard, bevacizumab
